In publication PMC6567057, “Pharmacokinetic, metabolic stability, plasma protein binding and CYP450s inhibition/induction assessment studies of N-(2-pyridylmethyl)-2-hydroxiymethyl-1-pyrrolidinyl-4-(3-chloro-4-methoxy-benzylamino)-5-pyrimidine-carboxamide as potential type 5 phosphodiesterase inhibitors” (Animal Cells and Systems, 2019):

What was measured:
dog plasma proteins = assay: Plasma protein binding by equilibrium dialysis (dog); type: in vitro ADME, Beagle dog; conditions: dog plasma, equilibrium dialysis, n = 3
Procedure: (§1) The phosphate buffer (100 mM) and sodium hydroxide solution (1.0 M) were prepared in deionized water. […] PPB was determined by equilibrium dialysis method. An aliquot (150 μL) of NHPPC spiked plasma and phosphate buffer (pH 7.4) was added into the donor side and the receiver side of each designated well. The plate was covered with adhesive sealing film to prevent evaporation and placed in a water-bath shaker kept at 37°C for 6 h with a rate of 50 rpm. […] At the end of 6 h, aliquots were taken from each side of each well (n = 3) and kept in a −20°C freezer prior to analysis. The stability, device recovery and PPB were calculated using the following equations: Remaining at 6 h (%)=C6h/C0h×100%, Device recovery (%)=CDonor+CReceiver/C6h×100%, PPB (%)=CDonor−CReceiver/CDonor×100%.

rat plasma proteins = assay: Plasma protein binding by equilibrium dialysis (rat); type: in vitro ADME, Sprague–Dawley rat; conditions: rat plasma, equilibrium dialysis, n = 3
Procedure: as §1

human plasma proteins = assay: Plasma protein binding by equilibrium dialysis (human); type: in vitro ADME; conditions: human plasma, equilibrium dialysis, n = 3
Procedure: as §1

Structure (SMILES): CC(=O)CC(c1ccccc1)c1c(O)c2ccccc2oc1=O (stereo not drawn) [Warf, reference compound]
- Mean device recovery % (dog plasma proteins): 100.7 ± 0.49%
- Mean device recovery % (rat plasma proteins): 107.9 ± 0.03%
- Mean device recovery % (human plasma proteins): 107.0 ± 0.25%
